Experimental data taken from paper PMC4702177, “Discovering new mTOR inhibitors for cancer treatment through virtual screening methods and in vitro assays” (Scientific Reports, 2016).
Values joined by “and” are separate entries in the source; they are usually repeats but may differ in a detail not shown here. Equal entries are not always repeated.

Key:
[1] = target: T1, human recombinant mTOR kinase (Homo sapiens, UniProt P42345); assay: In vitro mTOR kinase assay (K-LISA ELISA, p70S6K-GST substrate); assay type: biochemical; details: for inhibition at 10 µM: triplicate measurements; for IC50: mean ± SD of triplicate measurements
T1 construct: a purified recombinant mTOR fragment (amino acids 1360-2549, CBA104-1KIT from Calbiochem); purchased Calbiochem CBA104-1KIT
T1 sequence (P42345 1360-2549): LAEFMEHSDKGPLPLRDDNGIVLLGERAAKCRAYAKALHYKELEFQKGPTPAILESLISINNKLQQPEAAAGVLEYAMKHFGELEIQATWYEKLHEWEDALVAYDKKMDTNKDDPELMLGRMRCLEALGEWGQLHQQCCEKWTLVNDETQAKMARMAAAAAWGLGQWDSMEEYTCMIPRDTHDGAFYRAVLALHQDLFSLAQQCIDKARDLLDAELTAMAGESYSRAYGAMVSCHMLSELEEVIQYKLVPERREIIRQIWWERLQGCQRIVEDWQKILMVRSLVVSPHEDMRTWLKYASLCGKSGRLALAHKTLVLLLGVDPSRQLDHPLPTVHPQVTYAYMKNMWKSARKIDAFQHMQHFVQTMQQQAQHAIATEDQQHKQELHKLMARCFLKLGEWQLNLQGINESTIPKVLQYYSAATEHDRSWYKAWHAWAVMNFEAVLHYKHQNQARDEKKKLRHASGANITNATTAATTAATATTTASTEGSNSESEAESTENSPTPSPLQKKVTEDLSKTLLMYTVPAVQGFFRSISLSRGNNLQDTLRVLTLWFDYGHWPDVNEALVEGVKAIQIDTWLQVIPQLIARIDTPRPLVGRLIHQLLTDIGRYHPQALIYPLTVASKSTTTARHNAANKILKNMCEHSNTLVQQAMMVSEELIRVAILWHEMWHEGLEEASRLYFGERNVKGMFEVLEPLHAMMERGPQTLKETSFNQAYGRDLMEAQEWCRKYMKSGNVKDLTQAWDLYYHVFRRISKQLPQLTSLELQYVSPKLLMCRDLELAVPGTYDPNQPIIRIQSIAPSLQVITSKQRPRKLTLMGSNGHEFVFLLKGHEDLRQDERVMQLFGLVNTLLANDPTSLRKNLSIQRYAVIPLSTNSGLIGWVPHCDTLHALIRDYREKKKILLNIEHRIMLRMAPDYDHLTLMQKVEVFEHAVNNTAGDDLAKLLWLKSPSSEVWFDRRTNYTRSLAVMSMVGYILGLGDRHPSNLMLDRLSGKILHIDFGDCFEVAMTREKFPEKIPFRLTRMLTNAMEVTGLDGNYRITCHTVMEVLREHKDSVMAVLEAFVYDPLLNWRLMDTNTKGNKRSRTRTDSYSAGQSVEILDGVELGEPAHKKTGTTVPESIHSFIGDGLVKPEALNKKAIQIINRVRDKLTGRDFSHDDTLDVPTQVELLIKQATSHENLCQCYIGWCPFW
Protocol: The mTOR kinase inhibitory activities of the 41 final virtual hits were determined using an ELISA-based activity assays that utilize a p70S6K-GST fusion protein as a specific mTOR substrate (see the Experimental Section for details). For the initial screening, all the activities were measured at a concentration of 10 μM.
mTOR activity was evaluated using a purified recombinant mTOR fragment (amino acids 1360-2549, CBA104-1KIT from Calbiochem). The K-LISA^TM mTOR activity kit is an ELISA-based activity assay for detection of phosphorylation of a p70S6K-GST fusion protein (a specific mTOR substrate) in the presence of ATP. The assay was optimized for use with mTOR as described in the Calbiochem protocol. The assay takes place in 96-well plates and can be divided into two phases: an mTOR kinase reaction phase and phosphorylated substrate detection phase.
In the kinase reaction phase, the following components were mixed in the same well: 5 μL of a solution containing 5 μg/mL mTOR substrate (recombinant p70S6K-GST fusion protein) in Tris-buffered saline (1 L TBS: sodium chloride 8.8 g, Tris Base 2.4 g, HCl 13 mL, Tween-20 10 ml, ddH2O), 5 μL ATP solution containing 20 mM ATP diluted in kinase assay buffer (pH 7.4, 0.01% Tween 20, 1 mM EDTA, 10 mM MgCl2, 1 mM DTT), […] of human recombinant mTOR kinase at the optimal concentration (80 ng/well) diluted in kinase assay buffer, and 5 μL of serial dilutions of inhibitors diluted in DMSO and kinase assay buffer. For each inhibitor concentration, the assay was run in triplicate. The final reaction volume was 100 μL per well, and samples incubated for 30 min at room temperature.
The kinase reaction was stopped by adding 10 μL kinase stop solution to each well. The phosphorylated substrate was detected using Anti-p70S6K-pT389 antibody, followed by detection with HRP-Antibody Conjugate and TMB Substrate. Then, ELISA stop solution was added to each well to stop the reaction, and relative mTOR inhibition activity was determined by reading the absorbance at dual wavelengths of 450/540 nm.

mTOR kinase = target: mTOR kinase; parameters: method as in PMID 11575159; details: read-out: IC50 (mTOR kinase, reported); cited from earlier work
[2] = system: MGC-803 (human gastric cancer); assay: In vitro cell proliferation assay; assay type: cell-based; details: data not shown
Protocol: (§1) Most human breast cancer cells and cervical cancer cells become resistant to current chemotherapeutic drugs due to mutation of apoptotic mechanisms. It has been reported that MCF-7 cells are resistant to most of the drugs approved by the US Food and Drug Administration (FDA), including paclitaxel, doxorubicin, 5-fluorouracil, etoposide, and camptothecin[31][32].
(§2) Cell proliferation was measured with an MTS assay (CellTiter 96 Aqueous ONE Solution kit; Promega, Madison, USA). MCF-7, HeLa, MGC-803, C6 and U87 cells in log-phase were seeded (5 × 10^3 cells/well) in 96-well plates for 24 h, and then the medium were replaced with fresh medium containing different concentrations of compounds. […] After incubation for 48 h, the cells were further incubated with 20 μL of MTS for 1–4 h at 37 °C in a humidified incubator with 5% CO2. The absorbance at 490 nm was measured using a mircoplate reader (Model680, Bio-Rad; Hercules, CA, USA). The inhibition rate (%) was calculated as equation (1): […]
(§3) IC50 values were determined from the results of at least three independent tests and calculated from the inhibition curves.

C6 (Glioma cell) = assay: In vitro cell proliferation assay; assay type: cell-based; details: data not shown
Protocol: as §1, §2, §3

[3] = system: MCF-7 (human breast cancer cell); assay: In vitro cell proliferation assay; assay type: cell-based; details: data not shown
Protocol: as §1, §2, §3

[4] = system: HeLa (human cervical cancer cell); assay: In vitro cell proliferation assay; assay type: cell-based; details: data not shown
Protocol: as §1, §2, §3

U87 cells (Glioma cell) = assay: In vitro cell proliferation assay; assay type: cell-based; details: data not shown
Protocol: as §1, §2, §3

Structure (SMILES) | inhibition at 10 µM [1] [%] | IC50 [1] | other results
NC(=O)c1nnn(Cc2cc(Cl)c(C(=O)c3ccc(Cl)cc3)c(Cl)c2)c1N [Compound 33] | 21 |  | 
COc1cccc(-c2nn3c(N)c(C#N)c(-c4cccnc4)nc3c2C)c1 [Compound 27] | 38 | 28.6 ± 2.65 µM | 
O=[N+]([O-])c1c(Nc2ccc3c(c2)OCO3)cc(N2CCOCC2)c2nonc12 [Compound 18] | 38 | > 50 µM | 
Nc1nc2ncc(-c3n[nH]cc3[N+](=O)[O-])cn2n1 [Compound 12] | 30 |  | 
Clc1ccc(-c2nnc3sc(-c4cnccn4)nn23)cc1 [Compound 20] | 55 | < 10 µM and 9.2 µM | 
c1coc(-c2nnc3sc(-c4cnccn4)nn23)c1 [Compound 21] | 50 | 14.4 ± 2.02 µM | 
COC(=O)c1sc2nc(-c3ccccc3)nc(N3CCOCC3)c2c1C [Compound 25] | 36 | > 50 µM | 
COc1c(-c2ccoc2)oc2ccc(C)cc2c1=O [Compound 37] | 22 |  | 
Cc1cc(=O)n2nc(N)c(/N=N/c3ccccc3)c2[nH]1 [Compound 9] | 23 |  | 
CNc1cccc2c(NC(=S)NC(=O)c3cccc(C(=O)NC(C)=S)c3)cccc12 [Compound 40] | 91 | < 10 µM and 1.47 µM | anti-proliferative activity [2]: do not show anti-proliferative activity; anti-proliferative activity (C6 (Glioma cell)): do not show anti-proliferative activity; anti-proliferative activity [3]: do not show anti-proliferative activity; anti-proliferative activity [4]: do not show anti-proliferative activity; anti-proliferative activity (U87 cells (Glioma cell)): do not show anti-proliferative activity
O=C(NC(=S)Nc1ccc2oc(-c3cccnc3)nc2c1)c1ccco1 [Compound 26] | 33 | > 50 µM | 
COc1cc(/C=C2/SC(=S)N(C)C2=O)ccc1Oc1nc(N2CCOCC2)nc(N2CCOCC2)n1 [Compound 6] | 22 |  | 
O=C(CCl)Nc1ccc(/C=C2\CCCn3c2nc2cc(NC(=O)CCl)ccc2c3=O)cc1 [Compound 36] | 31 | 14.9 ± 1.01 µM | 
